The values below come from patent US10654808B2, “Tyrosine kinase inhibitor and pharmaceutical composition comprising same” (GUANGDONG RAYNOVENT BIOTECH CO., LTD., priority 2015, dated 2020).

Some results are limits rather than exact numbers.

The target of one assay is T1, VEGFR2 (Homo sapiens, UniProt P35968).
T1 construct: purchased Life technology
Briefly: Z'-LYTE in vitro enzyme activity assay, VEGFR2. The note with it: 100 μM ATP, 60 minutes, room temperature; read-out: IC50 detected by Z'-LYTE, VEGFR2. It counts as biochemical. In a few lines:
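Reaction with 3 nM VEGFR2, 2 μM Tyr1 peptide and 100 μM ATP in HEPES pH 7.5/MgCl2/EGTA/BRIJ-35, 1% DMSO, 60 min at room temperature; development reagent then 60 min at 23° C. Compounds tested at 11 threefold dilutions, 10 μM–0.17 nM final, in duplicate; IC50 from 4-parameter fit of inhibition.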

The target in another assay is T2, FGFR1 (Homo sapiens, UniProt P11362).
T2 construct: purchased Life technology
Briefly: Z'-LYTE in vitro enzyme activity assay, FGFR1. To be noted: 25 μM ATP, 60 minutes, room temperature; read-out: IC50 detected by Z'-LYTE, FGFR1. Format: biochemical. In a few lines: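 Z′-LYTE FRET assay with 1 nM FGFR1, 2 μM Tyr4 peptide and 25 μM ATP in HEPES pH 7.5 with Mg/Mn, 60 min at room temperature, then development 60 min at 23 °C. Compounds tested at 11 concentrations from 10 μM to 0.17 nM in 1% DMSO. IC50 from 4-parameter fit of inhibition.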

The next assay concerns HUVEC. Kind of assay: CellTiter-Glo luminescent cell viability assay, HUVEC stimulated with hVEGF-165. It counts as cell-based. To be noted: Homo sapiens, hVEGF-165 20 ng/ml, 72 hours, read-out: IC50 detected by CellTiter-Glo, HUVEC. As to the method:
The intracellular ATP changes were measured by CellTiter-Glo® Luminescent Cell Viability Assay. The IC50 value of the compounds was used as an index to evaluate the inhibitory effect of the compounds on HUVEC in vitro.
HUVEC cell line (ATCC), EGM-2 BulletKit (Lonza), hVEGF-165 (Cell Signaling), trypsin (Invitrogen), DPBS (Hyclone), 384 cell plate (Greiner), 384 compound plate (Greiner), CO2 incubator (Thermo), centrifuge (Eppendorf), Vi-cell cell counter (Beckman Coulter), Bravo Automatic Liquid Workstation (Agilent), Envision (Perkin Elmer)
B: Cell plating: HUVEC cells were resuspended with starved medium (only containing 2% FBS and 0.1% GA-1000) and diluted to a concentration of 20,000/mL. The diluted cells were added to a 384 plate (Greiner), 50 μl per well. The cell plates were placed in a 37° C., 5% CO2 incubator overnight.
C: Drug addition: the test compounds were diluted 4 times to obtain a total of 10 doses at a final concentration of 10 uM to 0.038 nM, two parallel wells. The middle plate was added with 47.6 uL of starved medium per well. 2.4 μl of compounds was transferred from a gradient dilution compound plate to a middle plate and mixed well. 5 μl of liquid was transferred from the middle plate to a cell plate. Incubate for 1 hour at 37° C. in a 5% CO2 incubator, 5 μl of starved medium containing hVEGF-165 (the final concentration was 20 ng/ml) and Heparin (the final concentration was 1 ng/m) were added and incubated at 37° C. in a 5% CO2 incubator for 72 hours.
D: After 72 hours, 30 μl of assay reagents was added and incubated at room temperature for 10-30 minutes, Envision was used to read the plate.
The reading was converted into suppression rate (%) (Max−Sample)/(Max−Min)*100%. Parameter curve fitting (Model 205 in XLFIT5, iDBS) was used to measure to obtain IC50 data.

Another assay has as its target T3, PDGFRB (Homo sapiens, UniProt P09619).
T3 construct: purchased Millipore
Kind of assay: Z'-LYTE in vitro enzyme activity assay, PDGFRB. To be noted: 100 μM ATP, 60 minutes, room temperature; read-out: IC50 detected by Z'-LYTE, PDGFRB. It counts as biochemical. In a few lines: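 Z′-LYTE FRET kinase assay using 40 nM PDGFRB, 2 μM Tyr4 peptide and 100 μM ATP in HEPES pH 7.5 with Mg2+/Mn2+ and 1% DMSO. The reaction ran 60 min at room temperature, followed by development for 60 min at 23 °C. IC50 values came from 4-parameter fits over 11 concentrations (10 μM–0.17 nM).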

T3 sequence (P09619 33-1106): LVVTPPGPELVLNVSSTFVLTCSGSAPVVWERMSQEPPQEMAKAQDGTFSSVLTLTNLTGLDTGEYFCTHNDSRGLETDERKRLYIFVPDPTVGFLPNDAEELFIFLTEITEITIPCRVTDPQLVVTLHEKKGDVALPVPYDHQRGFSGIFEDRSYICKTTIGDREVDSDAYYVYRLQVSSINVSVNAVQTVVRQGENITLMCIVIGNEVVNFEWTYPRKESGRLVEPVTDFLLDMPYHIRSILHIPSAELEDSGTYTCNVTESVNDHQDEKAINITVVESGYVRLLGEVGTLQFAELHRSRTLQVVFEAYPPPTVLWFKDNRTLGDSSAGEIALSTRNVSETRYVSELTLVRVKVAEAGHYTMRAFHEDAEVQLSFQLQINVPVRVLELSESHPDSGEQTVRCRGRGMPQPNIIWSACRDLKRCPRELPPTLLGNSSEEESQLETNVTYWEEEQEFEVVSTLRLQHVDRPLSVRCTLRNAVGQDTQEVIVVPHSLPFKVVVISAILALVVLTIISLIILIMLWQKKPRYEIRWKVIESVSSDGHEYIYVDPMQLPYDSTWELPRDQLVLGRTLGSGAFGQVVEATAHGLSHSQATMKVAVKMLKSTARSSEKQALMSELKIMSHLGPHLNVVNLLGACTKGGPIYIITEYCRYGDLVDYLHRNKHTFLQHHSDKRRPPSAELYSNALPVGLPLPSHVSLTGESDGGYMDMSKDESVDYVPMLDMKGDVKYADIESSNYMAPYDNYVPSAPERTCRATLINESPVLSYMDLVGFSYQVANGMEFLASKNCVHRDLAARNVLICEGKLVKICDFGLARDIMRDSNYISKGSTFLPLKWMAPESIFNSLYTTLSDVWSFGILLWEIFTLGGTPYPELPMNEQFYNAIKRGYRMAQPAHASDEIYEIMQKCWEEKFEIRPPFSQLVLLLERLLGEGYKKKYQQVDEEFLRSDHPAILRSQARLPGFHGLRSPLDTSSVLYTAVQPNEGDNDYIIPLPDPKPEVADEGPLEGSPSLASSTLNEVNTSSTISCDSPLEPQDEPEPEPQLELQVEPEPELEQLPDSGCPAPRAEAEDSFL
T2 sequence (P11362 22-822): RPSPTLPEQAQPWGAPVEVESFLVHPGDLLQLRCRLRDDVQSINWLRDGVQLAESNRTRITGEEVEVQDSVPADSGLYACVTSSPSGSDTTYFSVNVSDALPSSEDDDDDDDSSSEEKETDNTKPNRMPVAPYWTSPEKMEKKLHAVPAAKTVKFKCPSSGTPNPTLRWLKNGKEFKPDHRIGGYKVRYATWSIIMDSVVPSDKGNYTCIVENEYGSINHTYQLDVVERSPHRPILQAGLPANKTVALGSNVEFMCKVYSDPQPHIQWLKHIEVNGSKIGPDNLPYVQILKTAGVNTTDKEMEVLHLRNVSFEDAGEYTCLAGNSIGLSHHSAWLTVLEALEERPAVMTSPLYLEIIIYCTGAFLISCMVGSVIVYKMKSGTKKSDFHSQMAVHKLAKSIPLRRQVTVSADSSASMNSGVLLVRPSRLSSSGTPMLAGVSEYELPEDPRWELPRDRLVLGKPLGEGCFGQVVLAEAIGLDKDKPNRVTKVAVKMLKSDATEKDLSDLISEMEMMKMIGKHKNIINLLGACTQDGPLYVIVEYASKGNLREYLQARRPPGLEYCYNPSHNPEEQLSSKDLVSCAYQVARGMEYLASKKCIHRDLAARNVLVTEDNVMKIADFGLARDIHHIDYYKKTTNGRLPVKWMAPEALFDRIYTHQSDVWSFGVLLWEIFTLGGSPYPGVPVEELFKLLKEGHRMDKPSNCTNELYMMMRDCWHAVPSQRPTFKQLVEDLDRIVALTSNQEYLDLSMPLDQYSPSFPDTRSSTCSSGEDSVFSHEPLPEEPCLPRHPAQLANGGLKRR
T1 sequence (P35968 20-1356): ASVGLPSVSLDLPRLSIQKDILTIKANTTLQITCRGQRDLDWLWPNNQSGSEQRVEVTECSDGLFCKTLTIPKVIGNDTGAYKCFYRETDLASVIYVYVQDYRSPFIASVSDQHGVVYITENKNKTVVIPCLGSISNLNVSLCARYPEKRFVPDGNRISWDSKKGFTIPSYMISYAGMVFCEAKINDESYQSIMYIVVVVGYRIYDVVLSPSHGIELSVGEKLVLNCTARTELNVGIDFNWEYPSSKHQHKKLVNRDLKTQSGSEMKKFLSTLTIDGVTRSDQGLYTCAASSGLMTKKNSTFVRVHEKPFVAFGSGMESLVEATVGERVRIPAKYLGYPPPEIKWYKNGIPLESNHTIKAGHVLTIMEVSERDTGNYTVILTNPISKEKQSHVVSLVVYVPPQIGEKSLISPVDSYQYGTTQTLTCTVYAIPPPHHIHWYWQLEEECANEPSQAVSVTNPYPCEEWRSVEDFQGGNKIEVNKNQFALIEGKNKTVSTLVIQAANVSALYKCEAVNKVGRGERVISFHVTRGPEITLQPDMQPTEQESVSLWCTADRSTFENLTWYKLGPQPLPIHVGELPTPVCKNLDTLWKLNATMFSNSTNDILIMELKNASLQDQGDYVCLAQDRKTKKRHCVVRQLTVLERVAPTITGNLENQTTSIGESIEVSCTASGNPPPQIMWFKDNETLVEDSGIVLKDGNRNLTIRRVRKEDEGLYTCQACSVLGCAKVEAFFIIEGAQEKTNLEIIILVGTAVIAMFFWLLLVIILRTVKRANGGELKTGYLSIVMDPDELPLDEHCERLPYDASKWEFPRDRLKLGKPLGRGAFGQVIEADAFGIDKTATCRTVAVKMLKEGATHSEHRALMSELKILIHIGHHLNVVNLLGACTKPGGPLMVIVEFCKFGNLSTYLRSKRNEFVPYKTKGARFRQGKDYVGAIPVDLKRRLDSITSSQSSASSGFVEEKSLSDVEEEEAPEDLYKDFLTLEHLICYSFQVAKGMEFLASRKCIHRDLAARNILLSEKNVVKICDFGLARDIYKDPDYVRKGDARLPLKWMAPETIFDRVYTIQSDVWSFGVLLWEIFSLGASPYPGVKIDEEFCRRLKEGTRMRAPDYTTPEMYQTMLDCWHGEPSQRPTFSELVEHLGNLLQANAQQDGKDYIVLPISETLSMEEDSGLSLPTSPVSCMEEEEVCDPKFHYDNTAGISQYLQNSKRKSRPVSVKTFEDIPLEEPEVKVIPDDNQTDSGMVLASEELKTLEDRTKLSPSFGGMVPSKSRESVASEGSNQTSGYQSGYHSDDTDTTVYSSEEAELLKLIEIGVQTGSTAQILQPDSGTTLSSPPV

By IC50 is commonly meant the midpoint of a concentration-inhibition curve. Take `COc1cc2nccc(Oc3ccc(NC(=S)N4CC(F)(F)C4)c(Cl)c3F)c2cc1C(N)=O` [Example 95]: the half-inhibitory concentration (IC50) on VEGFR2 is less than 50 nM; at FGFR1, 50 to 200 nM; in the assay with HUVEC it was 100 to 1000 nM; at PDGFRB, 50 to 200 nM.

With `CCNC(=S)Nc1ccc(Oc2ccnc3cc(OC)c(C(N)=O)cc23)c(F)c1Cl` [Example 124], the 50% inhibitory concentration (IC50) is less than 50 nM on VEGFR2, less than 50 nM on FGFR1, less than 100 nM in the assay on HUVEC and less than 50 nM on PDGFRB.

On to `COc1cc2nccc(Oc3ccc(NC(=S)N4CC[C@H](F)C4)c(Cl)c3F)c2cc1C(N)=O` [Example 103], for which the IC50 is less than 50 nM at VEGFR2, 50 to 200 nM on FGFR1, 100 to 1000 nM with HUVEC and 200 to 1000 nM at PDGFRB.

In the case of `Cn1cnc(-c2ccc3c(Oc4ccc5c(C(=O)NC6CC6)coc5c4)ccnc3c2)c1` [Example 223], the IC50 at VEGFR2 was less than 50 nM; at FGFR1 it was less than 50 nM; in the assay with HUVEC, less than 100 nM; at PDGFRB, 50 to 200 nM.

`COc1cc2nccc(Oc3ccc(NC(=S)NC4CC4)c(Cl)c3)c2cc1C(=O)NO` [Example 50]: the IC50 on VEGFR2 was less than 50 nM; at FGFR1, 200 to 1000 nM; with HUVEC it was 100 to 1000 nM; on PDGFRB, 50 to 200 nM.

`[2H]C([2H])([2H])NC(=O)c1coc2cc(Oc3ccnc4cc(-c5cn(C)cn5)ccc34)ccc12` [Example 224]: the IC50 on VEGFR2 was less than 50 nM; on FGFR1 it was less than 50 nM; in the assay on HUVEC, less than 100 nM; on PDGFRB, less than 50 nM.

As to `COc1cc2nccc(Oc3ccc(NC(=S)NCC(F)F)c(Cl)c3)c2cc1C(N)=O` [Example 12], the half-inhibitory concentration (IC50) on VEGFR2 was less than 50 nM; at FGFR1 it was 50 to 200 nM; with HUVEC, less than 100 nM; at PDGFRB, 50 to 200 nM.

Consider `COc1cc2nccc(Oc3ccc(NC(=S)N[C@H](C)CO)c(Cl)c3)c2cc1C(N)=O` [Example 21], for which the half-maximal inhibitory concentration (IC50) at VEGFR2 is less than 50 nM; at FGFR1, 200 to 1000 nM; in the assay with HUVEC, less than 100 nM; on PDGFRB, 50 to 200 nM.

`Cn1cnc(-c2ccc3c(Oc4ccc(NC(=O)NC5CC5)c(Cl)c4)ccnc3c2)c1` [Example 221]: the 50% inhibitory concentration (IC50) was less than 50 nM on VEGFR2, less than 50 nM on FGFR1, less than 100 nM in the assay with HUVEC and 50 to 200 nM on PDGFRB.

As to `COc1cc2nccc(Oc3ccc(NC(=S)Nc4cnn(C(C)C)c4)c(Cl)c3)c2cc1C(N)=O` [Example 70], the IC50 is less than 50 nM on VEGFR2, 200 to 1000 nM on FGFR1, less than 100 nM in the assay with HUVEC and less than 50 nM on PDGFRB.

As for `[2H]C([2H])([2H])NC(=O)c1coc2cc(Oc3ccnc4cc(OC)c(C(N)=O)cc34)c(F)cc12` [Example 209], the half-inhibitory concentration (IC50) was 50 to 200 nM at VEGFR2, 50 to 200 nM at FGFR1, 100 to 1000 nM with HUVEC and less than 50 nM on PDGFRB.

Take `COc1cc2nccc(Oc3ccc(NC(=S)NCC4CC4)c(Cl)c3)c2cc1C(N)=O` [Example 59]: the IC50 is less than 50 nM on VEGFR2, 200 to 1000 nM on FGFR1, 100 to 1000 nM in the assay with HUVEC and 50 to 200 nM at PDGFRB.

Consider `CCNC(=O)c1coc2cc(Oc3ccnc4cc(-c5cn(C)cn5)ccc34)ccc12` [Example 222], for which the IC50 is less than 50 nM on VEGFR2, less than 50 nM at FGFR1, less than 100 nM in the assay on HUVEC and 50 to 200 nM on PDGFRB.

With `CNC(=O)c1coc2cc(Oc3ccnc4cc(-c5cn(C)cn5)ccc34)ccc12` [Example 225], the concentration for half-maximal inhibition (IC50) on VEGFR2 is less than 50 nM; on FGFR1, less than 50 nM; with HUVEC, less than 100 nM; on PDGFRB it was 50 to 200 nM.

Regarding `[2H]C([2H])([2H])NC(=S)Nc1ccc(Oc2ccnc3cc(OC)c(C(N)=O)cc23)c(F)c1Cl` [Example 112], the IC50 is less than 50 nM at VEGFR2, less than 50 nM on FGFR1, less than 100 nM in the assay on HUVEC and less than 50 nM at PDGFRB.

For the compound `COc1cc2nccc(Oc3ccc(NC(=S)N4CCCC4)c(Cl)c3F)c2cc1C(N)=O` [Example 98], the IC50 at VEGFR2 is less than 50 nM; on FGFR1, less than 50 nM; with HUVEC, 100 to 1000 nM; at PDGFRB, 50 to 200 nM.

Regarding `COc1cc2nccc(Oc3ccc4c(C(=O)NC5CC5)coc4c3)c2cc1C(N)=O` [Example 185], the 50% inhibitory concentration (IC50) on VEGFR2 is less than 50 nM; at FGFR1 it was 50 to 200 nM; with HUVEC it was less than 100 nM; on PDGFRB, 200 to 1000 nM.

With `COc1cc2nccc(Oc3ccc4oc(C(=O)NC5CC5)cc4c3)c2cc1C(N)=O` [Example 191], the IC50 fell in the range of 200 to 1000 nM at VEGFR2, 200 to 1000 nM on FGFR1, 100 to 1000 nM in the assay on HUVEC and 200 to 1000 nM at PDGFRB.

Regarding `Cn1cnc(-c2ccc3c(Oc4ccc(NC(=O)N5CCCC5)c(Cl)c4F)ccnc3c2)c1` [Example 219], the IC50 was less than 50 nM on VEGFR2, less than 50 nM at FGFR1, less than 100 nM in the assay with HUVEC and 50 to 200 nM at PDGFRB.

Turning to `CCOCCCOc1cc2nccc(Oc3ccc(NC(=S)NC4CC4)c(Cl)c3)c2cc1C(N)=O` [Example 58], the 50% inhibitory concentration (IC50) was less than 50 nM at VEGFR2, 200 to 1000 nM on FGFR1, 100 to 1000 nM with HUVEC and 50 to 200 nM on PDGFRB.

As for `COc1cc2nccc(Oc3ccc4oc(C(=O)N5CC(F)(F)C5)cc4c3)c2cc1C(N)=O` [Example 190], the IC50 at VEGFR2 lay in the range of 200 to 1000 nM; at FGFR1, 200 to 1000 nM; in the assay on HUVEC it was 100 to 1000 nM; at PDGFRB it was 200 to 1000 nM.

In the case of `CCNC(=O)c1coc2cc(Oc3ccnc4cc(OC)c(C(N)=O)cc34)ccc12` [Example 210], the concentration for half-maximal inhibition (IC50) at VEGFR2 is less than 50 nM; at FGFR1, 200 to 1000 nM; with HUVEC it was less than 100 nM; on PDGFRB, less than 50 nM.

In the case of `CNC(=S)Nc1ccc(Oc2ccnc3cc(OC)c(C(N)=O)cc23)cc1Cl` [Example 28], the IC50 on VEGFR2 is less than 50 nM; on FGFR1 it was 50 to 200 nM; in the assay on HUVEC, less than 100 nM; on PDGFRB, less than 50 nM.

In the case of `COc1cc2nccc(Oc3ccc(NC(=S)NCC(F)(F)F)c(Cl)c3)c2cc1C(N)=O` [Example 16], the IC50 is less than 50 nM on VEGFR2, 200 to 1000 nM on FGFR1, less than 100 nM in the assay on HUVEC and 50 to 200 nM on PDGFRB.

In the case of `Cc1c(OC[C@H](C)O)cn2ncnc(Oc3ccc(NC(=O)NC4CC4)c(Cl)c3)c12` [Example 127], the figures for the IC50 at VEGFR2 and in the assay with HUVEC were less than 50 nM and less than 100 nM, respectively.

For the compound `COc1cc2nccc(Oc3ccc(NC(=S)NC4CCC4)c(Cl)c3)c2cc1C(N)=O` [Example 6], the IC50 is less than 50 nM at VEGFR2, 200 to 1000 nM on FGFR1, less than 100 nM in the assay with HUVEC and 50 to 200 nM on PDGFRB.

Turning to `COc1cc2nccc(Oc3ccc4nc(NC5CC5)sc4c3)c2cc1C(N)=O` [Example 131], the values for the IC50 on VEGFR2 and in the assay with HUVEC were 200 to 1000 nM and 100 to 1000 nM, respectively.

Turning to `COc1cc2nccc(Oc3ccc(NC(=S)N4CC(F)C4)c(Cl)c3F)c2cc1C(N)=O` [Example 123], the IC50 on VEGFR2 is less than 50 nM; on FGFR1 it was less than 50 nM; in the assay with HUVEC, 100 to 1000 nM; at PDGFRB, 50 to 200 nM.

Regarding `Cn1cncc1-c1ccc2c(Oc3ccc(NC(=O)NC4CC4)c(Cl)c3F)ccnc2c1` [Example 215], the IC50 is less than 50 nM on VEGFR2, 50 to 200 nM at FGFR1, less than 100 nM in the assay with HUVEC and 50 to 200 nM on PDGFRB.

`COc1cc2nccc(Oc3ccc(Nc4c(NC5CC5)c(=O)c4=O)c(Cl)c3)c2cc1C(N)=O` [Example 130]: the concentration for half-maximal inhibition (IC50) on VEGFR2 was 200 to 1000 nM; in the assay on HUVEC, 100 to 1000 nM.
